Assay results: publication PMC12520537, “A Multi‐Property Optimizing Generative Adversarial Network for de novo Antimicrobial Peptide Design” (Advanced Science, 2025)
Where two headings read alike, the source gives them in different places. Ends that are not written are not given here.

Experiments:
MC3T3-E1 cells = format: cell-based, mouse
Excerpt: (§1) The assessment of cytotoxicity primarily relies on alterations in cell membrane permeability. To evaluate the cytotoxicity of AMPs, we employed the Cell Counting Kit‐8 (CCK‐8) assay, which is widely recognized as one of the most frequently used methods for assessing cytotoxicity. The CCK‐8 assay utilizes WST‐8 [2‐(2‐Methoxy‐4‐nitrophenyl)‐3‐(4‐nitrophenyl)‐5‐(2,4‐disulfophenyl)‐2H‐tetrazolium Sodium Salt] for rapid detection based on the principle that intracellular dehydrogenase‐mediated biological reduction of WST‐8 generates an orange formazan dye. This dye can dissolve in the medium, and its quantity is directly proportional to the number of viable cells. For the cytotoxicity test, 2 000 MC3T3‐E1 cells or CH3 cells were seeded into each well of 96‐well plates and cultured in DMEM medium containing 10% FBS and 1% penicillin‐streptomycin at 37 °C and 5% CO2overnight. Then the culture medium was removed, and the AMPs at the various concentrations in the media were added to each well. The cells were further incubated for 48 h, followed by the addition of […] of CCK‐8 and subsequent incubation for 1 h. The absorbance of the solution was measured at 450 nm by a microplate reader. The cell viability was calculated as follows (A represents absorbance): (11) %Cell viability=Asample−Ablank/Anegative−Ablank×100
The data were plotted as AMP concentration versus the percentage of living cells using GraphPad Prism 8.0.

S. aureus BNCC186335 = format: cell-based; conditions: BNCC186335, 18 h
Description: (§2) The antimicrobial activity of the synthesized AMPs was evaluated against several strains, including E. coli BL21(DE3), S. aureus BNCC186335, B. subtilis BNCC109047, and drug‐resistant strains such as E coli XJ13000957, E. coli XJ13022488, E. coli XJ19025100, E. coli XJ22006301, and MRSA ATCC43300. All strains are stored at ‐80°C and, before testing, were transferred into fresh Mueller‐Hinton Medium and incubated for 24 h at 37°C. Fresh cultures were used for the antimicrobial assays. The MIC values were determined using the broth microdilution method according to the Clinical and Laboratory Standards Institute (CLSI) protocol. Initial bacterial inoculums (5× 10^5 colony forming units (CFU)/mL) in Mueller‐Hinton Broth were exposed to varying concentrations of the compounds (0.5‐512 µg/mL) and incubated for 18 h at 37°C. The experiments are conducted on 96‐well microtiter plates with a final volume of 100 µL. The MIC was defined as the lowest concentration of the compound that inhibits visible bacterial growth. Additionally, the MBC was evaluated. After determining the MIC, samples from the MIC well and two higher concentrations are plated on agar plates. The MBC was recorded as the lowest concentration at which no visible bacterial colonies were observed. All experiments were performed in triplicate, with positive controls (ensuring proper bacterial growth) and negative controls (ensuring sterility) included.

B. subtilis BNCC109047 = format: cell-based; conditions: BNCC109047, 18 h
Description: as §2

E. coli BL21(DE3) = format: cell-based; conditions: BL21, 18 h
Description: as §2

[1] = system: bone marrow mesenchymal stem cells CH3; format: cell-based
Excerpt: as §1, with “viability=Asample−Ablank/Anegative−Ablank×100 […]” for “viability=Asample−Ablank/Anegative−Ablank×100”

human red blood cells = format: cell-based; conditions: 3 h
Description: Anticoagulant whole blood was diluted with PBS at a ratio of 1:1 and subsequently centrifuged at 1500×g for 10 minutes. The supernatant and white blood cell layer were discarded, while the red blood cells were washed three times with PBS until the supernatant became colorless and transparent. A 2% red blood cell suspension was then prepared using PBS. For the positive control, 0.2 mL of 1% Triton X‐100 was mixed with 0.8 mL of the red blood cell suspension. The negative control consisted of 0.2 mL of PBS combined with 0.8 mL of the red blood cell suspension. In the experimental group, 0.2 mL of MPOP‐03 (prepared at gradient concentrations) was added to 0.8 mL of the red blood cell suspension. Three replicates were prepared for each group. All samples were incubated at 37°C in a constant temperature water bath for 3 hours. Following incubation, the samples were centrifuged at 1500×g for 5 minutes, and the supernatants were carefully aspirated and transferred to new centrifuge tubes. The optical density values of the samples were measured at a wavelength of 524 nm using a microplate reader. The hemolysis ratio was calculated as follows (A represents absorbance): (12) %Hemolysis ratio=Asample−Anegative/Apositive−Anegative×100

E. coli XJ19025100 = format: cell-based; conditions: XJ19025100, 18 h
Description: as §2

| Sequence | CC50 (MC3T3-E1) (MC3T3-E1 cells) | MIC S. aureus (S. aureus BNCC186335) | MIC B. subtilis (B. subtilis BNCC109047) | MIC E. coli (E. coli BL21(DE3)) | CC50 for MC3T3-E1 (MC3T3-E1 cells; 48 h) | CC50 for CH3 [1] | CC50 for CH3 ([1]; 48 h) | HC50 (concentration required to induce 50% hemolysis of red blood cells) (human red blood cells) | MIC against E. coli XJ19025100 (E. coli XJ19025100) |
| --- | --- | --- | --- | --- | --- | --- | --- | --- | --- |
| DPFGIMSKLQQFIRKFYQSLKHLKT [MPOP-01] | 24 µg/mL | 4 µg/mL | 8 µg/mL | 128 µg/mL | – | – | – | – | – |
| MSKFKHFFNAVKSIFRGLTK [MPOP-03] | 85 µg/mL | – | 2 µg/mL | – | 84.96 µg/mL | 32.47 µg/mL | 34.27 µg/mL | 256 µg/mL | ≤ 8 µg/mL |
| GIGKFLHSFTKFFSKIMNAIR [MPOP-07] | 35 µg/mL | 4 µg/mL | 4 µg/mL | – | – | – | – | – | – |
| IGSFKHVFKRITSMAKAIR [MPOP-10] | – | 32 µg/mL | 32 µg/mL | 256 µg/mL | – | – | – | – | – |
| IKGIIKTIKKMASHFLHSAS [MPOP-09] | 118 µg/mL | 8 µg/mL | 8 µg/mL | 16 µg/mL | – | – | – | – | – |
| GLFDVIKKIAEMVSNGYHTVKKKF [MPOP-08] | 24 µg/mL | 4 µg/mL | 4 µg/mL | 32 µg/mL | – | – | – | – | – |
| LHQIKSVIKTAMNVLSGLFSAIKKK [MPOP-02] | 15 µg/mL | 4 µg/mL | 4 µg/mL | 32 µg/mL | – | – | – | – | – |
| VMKRIGTILSGLHSLLSKIF [MPOP-05] | 28 µg/mL | 4 µg/mL | 4 µg/mL | 32 µg/mL | – | – | – | – | – |
| GGGGMLKYFKTAIHTIKKIGQKIVN [MPOP-04] | 22 µg/mL | 4 µg/mL | 4 µg/mL | 16 µg/mL | – | – | – | – | – |
| KLFRVVKKMFHSVFSSIHKYFR [MPOP-06] | 20 µg/mL | 8 µg/mL | 8 µg/mL | 32 µg/mL | – | – | – | – | – |
